Results reported in patent publication US10526271B2, “Compositions and methods related to half salts of herbicidal carboxylic acids” (Dow AgroSciences LLC, priority 2015, dated 2020).

Columns and labels:
[1] = Volatility by thermogravometric analysis (TGA) weight loss at elevated temperature; format: physicochemical; settings: 120° C., linear region of weight loss curve
Procedure: The volatility of the 2,4-D potassium half salt (as a concentrated aqueous suspension) was compared to that of 2,4-D acid (as technical solid), 2,4-D ethylhexyl ester (EHE, as technical liquid), and 2,4-D dimethylammonium (DMA) and 2,4-D dimethylethanolammonium (DMEA) salts (both as concentrated aqueous solutions) by thermogravometric analysis (TGA) weight loss at elevated temperature. Each of the 2,4-D samples was added in turn (approximately 25-30 mg) to the reservoir cup of a TA Instruments Model 2050 TGA instrument. The temperature was maintained at 120° C. and the weight loss was recorded as a function of time.
For the water-containing samples, rapid weight loss was observed during water removal followed by a linear region (constant rate of loss). Linear curve fitting was applied in this region of the curve to determine rate of 2,4-D loss in μg/min.

[2] = test system: common lambsquarters (CHEAL); assay: Greenhouse postemergence weed control, common lambsquarters; format: in vivo; settings: 800 g ae/ha, no adjuvant, 21 DAA
Procedure: (§1) Plant material was propagated in the Indianapolis greenhouses under warm temperature conditions of 26 to 28° C. and a 16 hour day length and 8 hour dark cycle. Natural light was supplemented with 1000-watt metal halide overhead lamps with an average illumination of 500 μE m−2 s−1 photosynthetic active radiation for 16 consecutive hours each day. Seeds of each species were planted in 10 cm square pots containing a potting soil, Metro-Mix 360®. Metro-mix 360® consists of Canadian sphagnum peat moss, coarse perlite, bark ash, a starter nutrient charge (with gypsum), a slow-release nitrogen fertilizer and dolomitic limestone. Plants were top watered prior to treatment and sub-irrigated after treatment. Plant material was fertilized three times a week with Jack's fertilizer solution (Jack's Professional 15-5-15 4 Ca 2 Mg fertilizer manufactured by JR PETERS INC.; 6656 Grant Way; Allentown, Pa. 18106). Appropriate amounts of herbicides were weighed and diluted with Indianapolis tap water.
(§2) All treatments were applied to selected plant species with a track sprayer (Generation III Research Sprayer manufactured by DeVries Manufacturing in Hollandale, Minn., USA) located in building 306, laboratory E1-483, at the Dow AgroSciences facility in Indianapolis, Ind. The track sprayer was calibrated to deliver 140 L/ha at 40 psi ([…]) pressure utilizing an 8002E even, flat fan nozzle. Track sprayer speed was set at 1.6 mph ([…]). Applications were made to replicates of each species in a randomized complete block design, with 4 replications per treatment.
(§3) All species were evaluated at 15 or 21 days after application (DAA). The treated plants and control plants were evaluated using a rating scale of 0-100%, wherein 0% indicates no injury or control of the vegetation and 100% indicates complete death of the plants.

redroot pigweed (AMARE) = assay: Greenhouse postemergence weed control, redroot pigweed; format: in vivo; settings: 800 g ae/ha, no adjuvant, 21 DAA
Procedure: as §1, §2, §3

sicklepod (CASOB) = assay: Greenhouse postemergence weed control, sicklepod; format: in vivo; settings: 800 g ae/ha, no adjuvant, 21 DAA
Procedure: as §1, §2, §3

common ragweed (AMBTR) = assay: Greenhouse postemergence weed control, common ragweed; format: in vivo; settings: 800 g ae/ha, no adjuvant, 21 DAA
Procedure: as §1, §2, §3

SMILES | Rate of Loss [1] [µg/min] | % Control CHEAL [2] [%] | % Control AMARE (redroot pigweed (AMARE)) [%] | % Control CASOB (sicklepod (CASOB)) [%] | % Control AMBTR (common ragweed (AMBTR)) [%]
O=C(O)COc1ccc(Cl)cc1Cl [2,4-D Acid, 2,4-dichlorophenoxyacetic acid] | 2.29 | – | – | – | –
C[N+](C)(C)CCO.O=C([O-])COc1ccc(Cl)cc1Cl [2,4-D Choline] | – | 74 | 95 | – | –
CNC.O=C(O)COc1ccc(Cl)cc1Cl [2,4-D DMA, 2,4-D dimethylammonium] | 1.5 | 73 | 91 | 95 | 100
CN(C)CCO.O=C(O)COc1ccc(Cl)cc1Cl [2,4-D DMEA, 2,4-D dimethylethanolammonium] | 0.905 | – | – | – | –
CCCCC(CC)COC(=O)COc1ccc(Cl)cc1Cl (stereo not drawn) [2,4-D EHE, 2,4-D ethylhexyl ester] | 11 | – | – | – | –
O=C(O)COc1ccc(Cl)cc1Cl.O=C([O-])COc1ccc(Cl)cc1Cl.[K+] [2,4-D K Half Salt, 2,4-D Potassium Half Salt] | 0.132 | 84 | 91 | 100 | 100
N.O=C(O)COc1ccc(Cl)cc1Cl.O=C(O)COc1ccc(Cl)cc1Cl [2,4-D NH4 half-salt] | – | 74 | 91 | 100 | 100
N.O=C(O)COc1ccc(Cl)cc1Cl [2,4-D NH4] | – | 92 | 95 | 100 | 99
O=C(O)COc1ccc(Cl)cc1Cl.O=C([O-])COc1ccc(Cl)cc1Cl.[Na+] [2,4-D Na half-salt, 2,4-D Sodium Half Salt] | – | 85 | 92 | 100 | 100
